Where “and” joins values, the source holds several entries; their conditions need not be identical. Equal values may be shown once.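 Growth conditions: 96-well plates. Treatment: test compound, 48 hours, 5 concentrations. Analysis: linear interpolation between bracketing concentrations; unreached endpoints set to highest concentration. GI50 is the concentration that inhibits growth by half.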 Calls of active or inactive are those of the source. Cut-off read from the data, not from the text of the source: active = GI50 up to about 1.1 µM and inactive = higher.
What was measured:
Experiment in all cases: NCI-60 cell line screen, 48 h
786-0 = test system: 786-0
A498 = test system: A498
ACHN = test system: ACHN
BT-549 = test system: BT-549
CAKI-1 = test system: CAKI-1
EKVX = test system: EKVX
HCC 2998 = test system: HCC 2998
HCT-116 = test system: HCT-116
HCT-15 = test system: HCT-15
HOP-62 = test system: HOP-62
HOP-92 = test system: HOP-92
Hs-578T = test system: Hs-578T
LOX IMVI = test system: LOX IMVI
MCF7 = test system: MCF7
MDA-MB-231 = test system: MDA-MB-231
Malme-3M = test system: Malme-3M
NCI-H226 = test system: NCI-H226
NCI-H23 = test system: NCI-H23
NCI-H460 = test system: NCI-H460
NCI-H522 = test system: NCI-H522
NCI/ADR-RES = test system: NCI/ADR-RES
OVCAR-4 = test system: OVCAR-4
OVCAR-8 = test system: OVCAR-8
PC-3 = test system: PC-3
RPMI-8226 = test system: RPMI-8226
RXF 393 = test system: RXF 393
SF-268 = test system: SF-268
SF-295 = test system: SF-295
SF-539 = test system: SF-539
SK-MEL-2 = test system: SK-MEL-2
SK-MEL-5 = test system: SK-MEL-5
SK-OV-3 = test system: SK-OV-3
SN12C = test system: SN12C
SNB-19 = test system: SNB-19
SNB-75 = test system: SNB-75
SW-620 = test system: SW-620
T47D = test system: T47D
U-251 = test system: U-251
UACC-257 = test system: UACC-257
UACC-62 = test system: UACC-62
A549 = test system: A549
DU-145 = test system: DU-145
HL-60 = test system: HL-60
HT-29 = test system: HT-29
IGROV-1 = test system: IGROV-1
K562 = test system: K562
KM12 = test system: KM12
MDA-MB-435 = test system: MDA-MB-435
MDA-N = test system: MDA-N
MOLT-4 = test system: MOLT-4
OVCAR-5 = test system: OVCAR-5
SK-MEL-28 = test system: SK-MEL-28
SR = test system: SR
TK-10 = test system: TK-10
UO-31 = test system: UO-31
COLO 205 = test system: COLO 205
M14 = test system: M14
OVCAR-3 = test system: OVCAR-3

COc1ccc(-c2c(C#N)c(N)n(C3OC(COC(C)=O)C(OC(C)=O)C(OC(C)=O)C3OC(C)=O)c(=S)c2C#N)cc1 (stereo not drawn)
GI50 (786-0): 27.7 µM (inactive) and 28.6 µM (inactive)
GI50 (A498): 33.7 µM (inactive) and 28.6 µM (inactive)
GI50 (ACHN): 50.8 µM (inactive) and 33.6 µM (inactive)
GI50 (BT-549): 26.1 µM (inactive) and 26.7 µM (inactive)
GI50 (CAKI-1): 34.6 µM (inactive) and 53.1 µM (inactive)
GI50 (EKVX): 26.5 µM (inactive) and 30 µM (inactive)
GI50 (HCC 2998): 30.3 µM (inactive) and 18.2 µM (inactive)
GI50 (HCT-116): 55.5 µM (inactive) and 39.4 µM (inactive)
GI50 (HCT-15): 50.2 µM
GI50 (HOP-62): 28.6 µM (inactive) and 19.8 µM (inactive)
GI50 (HOP-92): 17.1 µM (inactive) and 19.2 µM (inactive)
GI50 (Hs-578T): 36.6 µM (inactive) and 27.4 µM (inactive)
GI50 (LOX IMVI): 34.3 µM (inactive) and 32.9 µM (inactive)
GI50 (MCF7): 29 µM (inactive) and 22.2 µM (inactive)
GI50 (MDA-MB-231): 27.9 µM (inactive) and 29.9 µM (inactive)
GI50 (Malme-3M): 43.9 µM (inactive) and 23.9 µM (inactive)
GI50 (NCI-H226): 50.1 µM (inactive) and 91 µM (inactive)
GI50 (NCI-H23): 44 µM (inactive) and 58.6 µM (inactive)
GI50 (NCI-H460): 47 µM (inactive) and 61.4 µM (inactive)
GI50 (NCI-H522): 23.3 µM (inactive) and 25.6 µM (inactive)
GI50 (NCI/ADR-RES): > 100 µM (inactive) and 75.2 µM (inactive)
GI50 (OVCAR-4): 24.4 µM (inactive) and 23.4 µM (inactive)
GI50 (OVCAR-8): 34.2 µM (inactive) and 21.3 µM (inactive)
GI50 (PC-3): 35.8 µM (inactive) and 37.8 µM (inactive)
GI50 (RPMI-8226): 26.1 µM (inactive) and 30.8 µM (inactive)
GI50 (RXF 393): 29.5 µM (inactive) and 24.5 µM (inactive)
GI50 (SF-268): 21.4 µM (inactive) and 25.5 µM (inactive)
GI50 (SF-295): 40.5 µM (inactive) and 35.7 µM (inactive)
GI50 (SF-539): 22.9 µM (inactive) and 40.1 µM (inactive)
GI50 (SK-MEL-2): 22.8 µM (inactive) and 24.2 µM (inactive)
GI50 (SK-MEL-5): 23.4 µM (inactive) and 21.7 µM (inactive)
GI50 (SK-OV-3): 29.4 µM (inactive) and 26.2 µM (inactive)
GI50 (SN12C): 76.4 µM (inactive) and 43.3 µM (inactive)
GI50 (SNB-19): 40 µM (inactive) and 55.8 µM (inactive)
GI50 (SNB-75): 17.5 µM (inactive) and 15.6 µM (inactive)
GI50 (SW-620): > 100 µM (inactive)
GI50 (T47D): 18.6 µM (inactive) and 28.3 µM (inactive)
GI50 (U-251): 46.5 µM (inactive) and 31.7 µM (inactive)
GI50 (UACC-257): 43.1 µM (inactive) and 23.7 µM (inactive)
GI50 (UACC-62): 20.8 µM (inactive) and 20 µM (inactive)

Cc1ccc(Cc2n[nH]c(=O)n2-c2ccccc2)cc1
GI50 (786-0): > 100 µM (inactive)
GI50 (A498): 37.5 µM (inactive)
GI50 (A549): > 100 µM (inactive)
GI50 (ACHN): > 100 µM (inactive)
GI50 (BT-549): > 100 µM (inactive)
GI50 (CAKI-1): > 100 µM (inactive)
GI50 (DU-145): > 100 µM (inactive)
GI50 (HCC 2998): > 100 µM (inactive)
GI50 (HCT-116): > 100 µM (inactive)
GI50 (HCT-15): > 100 µM
GI50 (HL-60): > 100 µM (inactive)
GI50 (HT-29): > 100 µM (inactive)
GI50 (IGROV-1): > 100 µM (inactive)
GI50 (K562): > 100 µM (inactive)
GI50 (KM12): > 100 µM (inactive)
GI50 (MCF7): > 100 µM (inactive)
GI50 (MDA-MB-231): > 100 µM (inactive)
GI50 (MDA-MB-435): > 100 µM (inactive)
GI50 (MDA-N): > 100 µM (inactive)
GI50 (MOLT-4): > 100 µM (inactive)
GI50 (Malme-3M): > 100 µM (inactive)
GI50 (NCI-H226): > 100 µM (inactive)
GI50 (NCI-H23): > 100 µM (inactive)
GI50 (NCI-H460): > 100 µM (inactive)
GI50 (NCI/ADR-RES): > 100 µM (inactive)
GI50 (OVCAR-5): > 100 µM (inactive)
GI50 (OVCAR-8): > 100 µM (inactive)
GI50 (PC-3): > 100 µM (inactive)
GI50 (RPMI-8226): 36.1 µM (inactive)
GI50 (RXF 393): 20.2 µM (inactive)
GI50 (SF-268): > 100 µM (inactive)
GI50 (SF-295): > 100 µM (inactive)
GI50 (SF-539): > 100 µM (inactive)
GI50 (SK-MEL-28): > 100 µM (inactive)
GI50 (SK-MEL-2): 73.1 µM (inactive)
GI50 (SK-MEL-5): > 100 µM (inactive)
GI50 (SN12C): > 100 µM (inactive)
GI50 (SNB-19): > 100 µM (inactive)
GI50 (SNB-75): > 100 µM (inactive)
GI50 (SR): > 100 µM (inactive)
GI50 (SW-620): > 100 µM (inactive)
GI50 (T47D): 652 nM (active)
GI50 (TK-10): > 100 µM (inactive)
GI50 (U-251): > 100 µM (inactive)
GI50 (UACC-257): > 100 µM (inactive)
GI50 (UACC-62): 55.3 µM (inactive)
GI50 (UO-31): 86.7 µM (inactive)

N#CC(C#N)=CNC(=S)Nc1ccc(S(=O)(=O)Nc2nccs2)cc1
GI50 (786-0): > 100 µM (inactive)
GI50 (A498): > 100 µM (inactive)
GI50 (A549): > 100 µM (inactive)
GI50 (ACHN): > 100 µM (inactive)
GI50 (BT-549): > 100 µM (inactive)
GI50 (CAKI-1): > 100 µM (inactive)
GI50 (COLO 205): > 100 µM (inactive)
GI50 (DU-145): > 100 µM (inactive)
GI50 (EKVX): > 100 µM (inactive)
GI50 (HCC 2998): > 100 µM (inactive)
GI50 (HCT-116): > 100 µM (inactive)
GI50 (HCT-15): > 100 µM
GI50 (HL-60): > 100 µM (inactive)
GI50 (HOP-62): > 100 µM (inactive)
GI50 (HOP-92): > 100 µM (inactive)
GI50 (HT-29): > 100 µM (inactive)
GI50 (IGROV-1): > 100 µM (inactive)
GI50 (KM12): > 100 µM (inactive)
GI50 (LOX IMVI): > 100 µM (inactive)
GI50 (M14): > 100 µM (inactive)
GI50 (MCF7): > 100 µM (inactive)
GI50 (MDA-MB-231): > 100 µM (inactive)
GI50 (MDA-MB-435): > 100 µM (inactive)
GI50 (MDA-N): > 100 µM (inactive)
GI50 (MOLT-4): > 100 µM (inactive)
GI50 (NCI-H226): > 100 µM (inactive)
GI50 (NCI-H23): > 100 µM (inactive)
GI50 (NCI-H460): > 100 µM (inactive)
GI50 (NCI/ADR-RES): > 100 µM (inactive)
GI50 (OVCAR-3): > 100 µM (inactive)
GI50 (OVCAR-4): > 100 µM (inactive)
GI50 (OVCAR-5): > 100 µM (inactive)
GI50 (OVCAR-8): > 100 µM (inactive)
GI50 (RXF 393): > 100 µM (inactive)
GI50 (SF-268): > 100 µM (inactive)
GI50 (SF-295): > 100 µM (inactive)
GI50 (SF-539): > 100 µM (inactive)
GI50 (SK-MEL-28): > 100 µM (inactive)
GI50 (SK-MEL-2): > 100 µM (inactive)
GI50 (SK-MEL-5): > 100 µM (inactive)
GI50 (SK-OV-3): > 100 µM (inactive)
GI50 (SN12C): > 100 µM (inactive)
GI50 (SNB-19): > 100 µM (inactive)
GI50 (SNB-75): > 100 µM (inactive)
GI50 (SW-620): > 100 µM (inactive)
GI50 (T47D): > 100000 nM (inactive)
GI50 (TK-10): > 100 µM (inactive)
GI50 (U-251): > 100 µM (inactive)
GI50 (UACC-257): > 100 µM (inactive)
GI50 (UACC-62): > 100 µM (inactive)
GI50 (UO-31): > 100 µM (inactive)

Reference: ChEMBL document CHEMBL1201862, “PubChem BioAssay data set” (2004)
